Test results from US20260015350A1, “AZAQUINAZOLINE PAN-KRAS INHIBITORS” (Mirati Therapeutics, Inc., priority 2022, published 2026).

Assays:
[1] = test system: KRas-mediated phosphorylation of ERK in A549 cells; assay: Inhibition of KRas-mediated phosphorylation of ERK (Cisbio HTRF pERK), A549 cells; type: cell-based; conditions: Homo sapiens, HTRF pERK
Summary of the method: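 A cell-based HTRF pERK assay: ten-point, threefold titrations beginning at 10 uM were applied for 3 hrs, with 0.2 uM Trametinib wells as the minimum control. Cells were lysed cold, and lysate was incubated with the antibody pair for 2 hrs before reading.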

[2] = test system: KRas-mediated phosphorylation of ERK in AsPC-1 cells; assay: Inhibition of KRas-mediated phosphorylation of ERK (Cisbio HTRF pERK), AsPC-1 cells; type: cell-based; conditions: Homo sapiens, ASPC1, AsPC-1 cells; HTRF pERK
Summary of the method: (§1)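 Following a 3-hr exposure of cells to serially diluted compound (from 10 uM, 3-fold, 10 doses), cold lysis for 40 mins preceded a 2-hr room-temperature HTRF immunoassay for phosphorylated ERK.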

[3] = target: T1, KRas^G12R (Homo sapiens, UniProt P01116, G12R); assay: KRas binding assay (TR-FRET tracer displacement), KRas G12R
T1 construct: Biotinylated KRas (corresponding to amino acids 1-169, produced at Accelegan Inc.); biotin (biotinylated); purchased Accelegan Inc

[4] = target: T2, KRas^G12D (Homo sapiens, UniProt P01116, G12D); assay: KRas binding assay (TR-FRET tracer displacement), KRas G12D
T2 construct: Biotinylated KRas (corresponding to amino acids 1-169, produced at Accelegan Inc.); biotin (biotinylated); purchased Accelegan Inc

[5] = test system: KRas-mediated phosphorylation of ERK in MKN1 cells; assay: Inhibition of KRas-mediated phosphorylation of ERK (Cisbio HTRF pERK), MKN1 cells; type: cell-based; conditions: Homo sapiens, MKN-1
Description: (§2) Inhibition of KRas Phosphorylation of ERK (HTRF) by Exemplary Compounds of Formula (I)
(§3) Cisbio HTRF Advanced PERK Assay Catalog #64AERPEH
(§4) Day 1: Seed 6,000 cells/well-25 μl/well in 384-well white solid bottom plate; RPM1_10% FBS. Incubate overnight at 37° C./5% CO2.
(§5) Incubate for 4 hours at room temperature covered.
(§6) Read HTRF using ClarioStar

[6] = test system: KRas-mediated phosphorylation of ERK in H727 cells; assay: Inhibition of KRas-mediated phosphorylation of ERK (Cisbio HTRF pERK), H727 cells; type: cell-based; conditions: Homo sapiens, NCI-H727, H727 cells; HTRF pERK
Summary of the method: as §1

[7] = target: T3, KRas^G12V (Homo sapiens, UniProt P01116, G12V); assay: KRas binding assay (TR-FRET tracer displacement), KRas G12V
T3 construct: Biotinylated KRas (corresponding to amino acids 1-169, produced at Accelegan Inc.); biotin (biotinylated); purchased Accelegan Inc

[8] = test system: KRas-mediated phosphorylation of ERK in PSN1 cells; assay: Inhibition of KRas-mediated phosphorylation of ERK (Cisbio HTRF pERK), PSN1 cells; type: cell-based; conditions: Homo sapiens
Description: as §2, §3, §4, §5, §6

[9] = test system: KRas-mediated phosphorylation of ERK in H460 cells; assay: Inhibition of KRas-mediated phosphorylation of ERK (Cisbio HTRF pERK), H460 cells; type: cell-based; conditions: Homo sapiens, NCI-H460, HTRF pERK
Summary of the method: as §1

T3 sequence (P01116 1-169 isoform P01116-2 G12V): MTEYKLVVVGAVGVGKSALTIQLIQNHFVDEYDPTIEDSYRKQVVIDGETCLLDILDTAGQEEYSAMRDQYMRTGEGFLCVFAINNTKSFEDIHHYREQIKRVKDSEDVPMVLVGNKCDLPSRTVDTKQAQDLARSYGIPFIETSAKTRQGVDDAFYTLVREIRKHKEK
T1 sequence (P01116 1-169 isoform P01116-2 G12R): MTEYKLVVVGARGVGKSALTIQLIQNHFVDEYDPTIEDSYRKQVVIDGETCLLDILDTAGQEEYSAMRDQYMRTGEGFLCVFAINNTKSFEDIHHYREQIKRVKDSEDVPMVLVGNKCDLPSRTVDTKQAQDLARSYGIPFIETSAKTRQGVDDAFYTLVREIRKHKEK
T2 sequence (P01116 1-169 isoform P01116-2 G12D): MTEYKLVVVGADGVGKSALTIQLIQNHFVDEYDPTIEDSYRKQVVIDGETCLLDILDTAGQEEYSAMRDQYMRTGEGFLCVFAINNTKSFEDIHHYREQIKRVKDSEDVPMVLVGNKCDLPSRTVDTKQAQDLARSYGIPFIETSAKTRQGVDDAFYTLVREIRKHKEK

For `CCc1c(F)ccc2cc(O)cc(-c3ncc4c(N5CCCC(N6CCCCS6(=O)=O)C5)nc(OC[C@@]56CCCN5C[C@H](F)C6)nc4c3F)c12` (stereo partly drawn) [Example 664, 2-(1-(7-(8-ethyl-7-fluoro-3-hydroxynaphthalen-1-yl)-8-fluoro-2-(((2R,7aS)-2-fluorohexahydro-1H-pyrrolizin-7a-yl)methoxy)pyrido[4,3-d]pyrimidin-4-yl)piperidin-3-yl)-1,2-thiazinane 1,1-dioxide], the IC50 [1] was 152 nM, the IC50 [2] was 567 nM and the IC50 [3] was 2 nM. It also gave an IC50 [4] of 7 nM, an IC50 [5] of 5 nM and an IC50 [6] of 351 nM. The IC50 [7] was 6 nM and the IC50 [8] was > 10000 nM.
`CCc1c(F)ccc2cc(O)cc(-c3ncc4c(N5CCCO[C@@H](CCO)C5)nc(OC[C@@]56CCCN5C[C@H](F)C6)nc4c3F)c12` [Example 578, 5-ethyl-6-fluoro-4-(8-fluoro-2-(((2R,7aS)-2-fluorohexahydro-1H-pyrrolizin-7a-yl)methoxy)-4-((S)-2-(2-hydroxyethyl)-1,4-oxazepan-4-yl)pyrido[4,3-d]pyrimidin-7-yl)naphthalen-2-ol] gave an IC50 [1] of 467 nM, an IC50 [2] of 294 nM and an IC50 [3] of 2 nM. For the same molecule, the IC50 [4] was 5 nM, the IC50 [5] was 1 nM and the IC50 [6] was 258 nM. The IC50 [7] was 8 nM, the IC50 [9] was 125 nM and the IC50 [8] was > 10000 nM.
Work on `CCc1c(F)ccc2cc(O)cc(-c3ncc4c(N5C[C@H]6CC[C@@H](C5)N6C5CC(F)(F)C5)nc(OC[C@@]56CCCN5C[C@H](F)C6)nc4c3F)c12` [Example 831, 4-(4-((1R,5S)-8-(3,3-difluorocyclobutyl)-3,8-diazabicyclo[3.2.1]octan-3-yl)-8-fluoro-2-(((2R,7aS)-2-fluorotetrahydro-1H-pyrrolizin-7a(5H)-yl)methoxy)pyrido[4,3-d]pyrimidin-7-yl)-5-ethyl-6-fluoronaphthalen-2-ol] yielded an IC50 [2] of 331 nM, an IC50 [3] of 38 nM and an IC50 [4] of 42 nM. It also gave an IC50 [5] of 13 nM, an IC50 [6] of 1080 nM and an IC50 [7] of 36 nM. For the same molecule, the IC50 [8] was > 10000 nM.
`CCc1c(F)ccc2cc(O)cc(-c3ncc4c(N5CCC6CNC(=O)NC6C5)nc(OC[C@@]56CCCN5C[C@H](F)C6)nc4c3F)c12` (stereo partly drawn) [Example 592, 7-(7-(8-ethyl-7-fluoro-3-hydroxynaphthalen-1-yl)-8-fluoro-2-(((2R,7aS)-2-fluorohexahydro-1H-pyrrolizin-7a-yl)methoxy)pyrido[4,3-d]pyrimidin-4-yl)octahydropyrido[3,4-d]pyrimidin-2(1H)-one] was tested, and the IC50 [2] was > 10000 nM, the IC50 [3] was 281 nM and the IC50 [4] was 790 nM. The IC50 [5] was > 10000 nM, the IC50 [6] was > 10000 nM and the IC50 [7] was 119 nM. The IC50 [8] was > 10000 nM.
For `Oc1cc(-c2ncc3c(N4C[C@@H]5C[C@H](C4)[C@H](O)C5)nc(OC[C@@]45CCCN4C[C@H](F)C5)nc3c2F)c2cc(C(F)(F)F)ccc2c1` [Example 817, (1R,5R,6R)-3-(8-fluoro-2-(((2R,7aS)-2-fluorotetrahydro-1H-pyrrolizin-7a(5H)-yl)methoxy)-7-(3-hydroxy-7-(trifluoromethyl)naphthalen-1-yl)pyrido[4,3-d]pyrimidin-4-yl)-3-azabicyclo[3.2.1]octan-6-ol], the IC50 [2] was 188 nM, the IC50 [3] was 2 nM and the IC50 [4] was 5 nM. The IC50 [5] was 50 nM, the IC50 [6] was 43 nM and the IC50 [7] was < 2 nM. For the same molecule, the IC50 [8] was 5110 nM.
For `CCc1c(F)ccc2cc(O)cc(-c3ncc4c(NS(=O)(=O)C[C@H]5CNCCO5)nc(OC[C@@]56CCCN5C[C@H](F)C6)nc4c3F)c12` [Example 637, N-(7-(8-ethyl-7-fluoro-3-hydroxynaphthalen-1-yl)-8-fluoro-2-(((2R,7aS)-2-fluorotetrahydro-1H-pyrrolizin-7a(5H)-yl)methoxy)pyrido[4,3-d]pyrimidin-4-yl)-1-((R)-morpholin-2-yl)methanesulfonamide], the IC50 [2] was > 10000 nM, the IC50 [3] was 2250 nM and the IC50 [4] was 1220 nM. For the same molecule, the IC50 [5] was > 10000 nM, the IC50 [6] was > 10000 nM and the IC50 [7] was 3790 nM. The IC50 [8] was > 10000 nM.
For `C#Cc1c(F)ccc2cc(O)cc(-c3ncc4c(N5CCC[C@@](C)(O)C5)nc(OC[C@]56CCCN5[C@H](CO)CC6)nc4c3F)c12` [Example 814, (R)-1-(7-(8-ethynyl-7-fluoro-3-hydroxynaphthalen-1-yl)-8-fluoro-2-(((3S,7aR)-3-(hydroxymethyl)tetrahydro-1H-pyrrolizin-7a(5H)-yl)methoxy)pyrido[4,3-d]pyrimidin-4-yl)-3-methylpiperidin-3-ol], the IC50 [2] was 485 nM, the IC50 [3] was 3 nM and the IC50 [4] was < 2 nM. For the same molecule, the IC50 [5] was 176 nM, the IC50 [6] was 402 nM and the IC50 [7] was < 2 nM. The IC50 [8] was > 10000 nM.
Work on `CCc1c(F)ccc2cc(O)cc(-c3ncc4c(N5CCCOC(CCOC)C5)nc(OC[C@@]56CCCN5C[C@H](F)C6)nc4c3F)c12` (stereo partly drawn) [Example 601, 5-ethyl-6-fluoro-4-(8-fluoro-2-(((2R,7aS)-2-fluorohexahydro-1H-pyrrolizin-7a-yl)methoxy)-4-(2-(2-methoxyethyl)-1,4-oxazepan-4-yl)pyrido[4,3-d]pyrimidin-7-yl)naphthalen-2-ol] yielded an IC50 [1] of 344 nM, an IC50 [2] of 376 nM and an IC50 [3] of 7 nM. It also gave an IC50 [4] of 14 nM, an IC50 [5] of 26 nM and an IC50 [6] of 300 nM. For the same molecule, the IC50 [7] was 12 nM, the IC50 [9] was 133 nM and the IC50 [8] was > 10000 nM.
`O=S1(=O)CCC2(CCCN(c3nc(OC[C@@]45CCCN4C[C@H](F)C5)nc4c(F)c(-c5cc(O)cc6ccc(F)c(Cl)c56)ncc34)C2)N1` (stereo partly drawn) [Example 807, 7-(7-(8-chloro-7-fluoro-3-hydroxynaphthalen-1-yl)-8-fluoro-2-(((2R,7aS)-2-fluorotetrahydro-1H-pyrrolizin-7a(5H)-yl)methoxy)pyrido[4,3-d]pyrimidin-4-yl)-2-thia-1,7-diazaspiro[4.5]decane 2,2-dioxide] was tested, and the IC50 [2] was 32 nM, the IC50 [3] was < 2 nM and the IC50 [4] was < 2 nM. The IC50 [5] was 3 nM, the IC50 [6] was 14 nM and the IC50 [7] was 3 nM. It also gave an IC50 [8] of 125 nM.
`Cc1cccc2cc3[nH]ncc3c(-c3ncc4c(N5CCCC6(CNS(=O)(=O)N6)C5)nc(OCC56CCCN5CCC6)nc4c3F)c12` (stereo not shown) [Example 808, 7-(8-fluoro-7-(5-methyl-1H-benzo[f]indazol-4-yl)-2-((tetrahydro-1H-pyrrolizin-7a(5H)-yl)methoxy)pyrido[4,3-d]pyrimidin-4-yl)-2-thia-1,3,7-triazaspiro[4.5]decane 2,2-dioxide] was tested, and the IC50 [2] was 3070 nM, the IC50 [3] was < 2 nM and the IC50 [4] was < 2 nM. The IC50 [5] was 653 nM, the IC50 [6] was 1690 nM and the IC50 [7] was < 2 nM. For the same molecule, the IC50 [8] was > 10000 nM.
For `CCc1c(F)ccc2cc(O)cc(-c3ncc4c(N5CCCC6(C[C@H](O)[C@H](O)CO6)C5)nc(OC[C@@]56CCCN5C[C@H](F)C6)nc4c3F)c12` (stereo partly drawn) [Example 642, (3R,4S)-8-(7-(8-ethyl-7-fluoro-3-hydroxynaphthalen-1-yl)-8-fluoro-2-(((2R,7aS)-2-fluorohexahydro-1H-pyrrolizin-7a-yl)methoxy)pyrido[4,3-d]pyrimidin-4-yl)-1-oxa-8-azaspiro[5.5]undecane-3,4-diol], the IC50 [2] was > 10000 nM, the IC50 [3] was 195 nM and the IC50 [4] was 864 nM. For the same molecule, the IC50 [5] was 2870 nM, the IC50 [6] was > 10000 nM and the IC50 [7] was 235 nM. For the same molecule, the IC50 [8] was > 10000 nM.
